The subject of one test is BM lin- cells. Briefly: Culture of BM lin- cells from VavCre;EGFRfl/fl or VavCre;EGFR+/+ mice with erlotinib. In kind it is cell-based, mouse. The settings on record: TSF + 10 uM erlotinib, 72 hours. On the procedure:
Cell apoptosis and necrosis were analyzed by flow cytometry according to manufacturer's protocols with Annexin V-FITC and 7-AAD staining (BD, San Jose, Calif.). […] Cells were fixed and permeabilized with Fix Buffer I and Perm Buffer III (BD), and then stained with mouse anti-phospho-AKT-S473 PE (BD) or isotype control. Cell cycle analysis was performed by flow cytometric analysis modified from previous reports (Jordan et al, Exp. Hematol. 24:1347-1355 (1996), Chute et al, Hum. Gene Ther. 11:2515-2528 (2000), Sungartz et al, Blood 119:1308-1309 (2012)). Briefly, cells were fixed and permeabilized with 0.25% Saponin (Calbiochem, La Jolla, Calif.), 2.5% paraformaldehyde, 2% FBS in 1×PBS, and then labeled with Ki67-FITC and 7-AAD (BD). BM lin^− cells from VavCre;EGFR^+/+ or VavCre;EGER^fl/fl were cultured with TSF or TSF+10 μM erlotinib, or TSF following 300 cGy for 72 hours, and then collected for total cell counts and CFCs analysis.

Another test has as its system C57B16 mice. Nature of the test: Survival of C57B16 mice after 700 cGy TBI. In kind it is in vivo, mouse.
Another test concerns EGFR. Nature of the test: EGFR phosphorylation in BM KSL cells of erlotinib-treated Tie2Cre;Bak1-/-;BaxFl/- mice. In kind it is in vivo, mouse. The settings on record: erlotinib-treated Tie2Cre;Bak1-/-;BaxFl/- mice vs water. On the procedure: (§1) FIGS. 5A-5D. (FIG. 5A) Schematic diagram of irradiation and treatment of Tie2Cre;Bak1^−/−;Bax^Fl/− mice with erlotinib or water starting 3 days prior to TBI with evaluation of BM progenitor cell content and HSC repopulating capacity via competitive transplantation at +2 hours after TBI. […] A Student's 2-tailed t-test was used for all statistical analyses.

In test [1] the test system is BM HSC and progenitor cells. Briefly: Erlotinib pre-treatment of Tie2Cre;Bak1-/-;BaxFl/- mice, 300 cGy TBI, BM HSC and progenitor cell content. Type of test: in vivo, mouse. On the procedure:
as §1
(§2) Competitive repopulation assays were also performed using donor C57B16 mice (CD45.2^+) that had been irradiated with 700 cGy TBI and gavaged daily with 10 μg/G erlotinib (Genentech, San Francisco, Calif.) or 150 μl water beginning on day 0 and continued through day +14. Donor BM cells were injected via tail vein into recipient B6.SJL mice (CD45.1^+) at a dose of 5×10^5 cells with a competing dose of host 1×10^5 BM MNCs. Tie2Cre;Bak1^−/−;Bax^FL/− mice were gavaged daily with 10 μg/G erlotinib or water starting day −3 and given 300 cGy TBI on day 0. Erlotinib administration continued until the timepoint of donor BM cell collection and analysis. Tie2Cre;Bak1^−/−;Bax^FL/− BM cells were injected via tail vein into recipient CD45.1^+ mice at a cell dose of 3×10^5 cells with a competing dose of host 1×10^5 CD45.1^+ cells. Multilineage hematopoietic reconstitution was measured in the PB of recipient mice by flow cytometry at 4, 8, and 12 weeks post-transplant. For survival studies with erlotinib administration, C57B16 mice were exposed to 700 cGy and then given 10 μg/G erlotinib or water starting day −3 and continuing daily through day +14.

Test [2] relates to BM hematopoietic stem and progenitor cells. Briefly: Hematopoietic regeneration in C57B16 mice after 700 cGy TBI (progenitor assays, competitive repopulation). In kind it is in vivo, mouse. Here is the method: (§3) BM cells were collected into PBS (Cellgro, Manassas, Va.) with 10% fetal bovine serum (Hyclone, Logan, Utah) and 1% penicillin/streptomycin (GIBCO, Grand Island, N.Y.). Viable BM cells were quantified using Trypan Blue Stain (Lonza, Basel, Switzerland) to exclude apoptotic and dead cells. Cells were then incubated with anti-c-kit, anti-Sca-1, anti-lineage cocktail, anti-CD41, anti-CD48, and anti-CD150 antibodies (Biolegend and eBiosciences, San Diego, Calif.; BD, San Jose, Calif.) to measure ckit^+sca-1^+lin^− (KSL) progenitor cells or CD150′CD41^−CD48^−KSL (SLAM/KSL) as previously described (Kiel et al, Cell 121:1109-1121 (2005)). Colony forming cells (CFCs) and CFU-S12 assays were also performed to measure functional hematopoietic stem/progenitor cell content. For CFCs, either whole BM or cultured lineage−cells, or KSL cells were plated onto methylcellulose (StemCell Technologies, Vancouver, BC, Canada), and colonies were scored on day 14. 1×10^5 BM or 2×10^5 cells were collected from donor mice and injected via tail vein into recipient C57B16 mice that had been given 950 cGy TBI. At day +12 post-injection, spleens from recipient mice were harvested and stained with Bouin's fixative solution (Ricca Chemical Company, Arlington, Tex.), and colonies were counted as previously described (Till and MeRadiat. Res. 14:213-222 (1961)). Complete blood counts were performed on a HemaVet 950 (Drew Scientific, Dallas, Tex.).
as §2
Ten micrometer sections were cut using they CryoJane tape system (Instrumedics Inc, Hackensack, N.J., USA). Femurs were stained with hematoxylin and eosin or anti-mouse endothelial cell antibody (MECA-32) as previously described (Salter et al, Blood 113:2104-2107 (2009)) to assess BM cellularity and the BM vasculature after irradiation. Images were obtained using an Axiovert 200 microscope (Carl Zeiss Microscopy, Thornwood, N.Y.) or a Leica SP5 confocal microscope (Leica Microsystems Inc, Buffalo Grove, Ill.). Adobe Photoshop software (version 9.0.2, Adobe Systems, San JoSe, Calif.) was used to quantify positive signal as a measure of spatial distribution in the fields (Lehr et al, J. Histochem. Cytochem. 45:1559-1565 (1997), Lehr et al, J. Histochem. Cytochem. 47:119-126 (1999)).

A further test concerns BM KSL cells. Briefly: Culture of 300 cGy-irradiated BM KSL cells with BM ECs or TSF cytokines; CFC and CFU-S12 recovery. Type of test: cell-based, mouse. The conditions noted are these: screen of candidate proteins from cytokine array; data not shown. On the procedure: as §3, with “Tex.). […]” for “Tex.).”
[3] abbreviates: 700 cGy TBI, erlotinib 10 ug/G oral gavage daily through day +14, vs water.

Entries after “also recorded” stand apart in the source; their conditions may differ.

As to `C#Cc1cccc(Nc2ncnc3cc(OCCOC)c(OCCOC)cc23)c1` [erlotinib], in the test on BM lin- cells (EGFR+/+ BM lin- cells), the “total cells and CFCs” value was “decreased yield in total cells and CFCs; also recorded: significantly less total cells and CFCs”. Also, in the test on BM lin- cells (EGFRfl/fl BM lin- cells, vs cytokines alone), the “total cell expansion or CFC production” value is given as “no significant effect”. Also, the “mice that survived beyond day +27” value in the test with C57B16 mice (10 ug/G erlotinib oral gavage from 3 days prior to TBI for 14 days post-irradiation, water controls 53% at day +30) is on record as 0 of 15. For the same molecule, the “mice that died by day +27” value with C57B16 mice (10 ug/G erlotinib via gavage from 3 days prior to TBI until day +14) is listed as 15 of 15. Besides, the “EGFR-phosphorylation in BM KSL cells” value with EGFR is given as “decrease in EGFR-phosphorylation”. Moreover, the “engraftment of myeloid cells, B cells and T cells at 12 weeks post-transplant” value in test [1] (BM from erlotinib-treated Tie2Cre;Bak1-/-;BaxFl/- mice vs irradiated control) was “reduced engraftment”. Further, in test [1] (erlotinib from 3 days prior to 300 cGy TBI, +2 hours after irradiation, vs water), the “BM KSL cells and CFU-S12 following TBI” value was “decreased BM KSL cells and decreased BM CFU-S12 content; also recorded: significantly decreased”. Besides, the “decreased HSC content (4- to 12-week engraftment in competitively transplanted recipients)” value in test [1] (erlotinib-treated, 300 cGy irradiated Tie2Cre;Bak1-/-;BaxFl/- donors vs water) is reported as “more than 20 fold”. In test [2] (700 cGy TBI, erlotinib 10 ug/G oral gavage daily through day +14), the “HSC pool at day +14 post-TBI by competitive repopulation assay” value is listed as “essentially absent”. Moreover, in test [2] (setting [3]), the “BM CFCs and CFU-S12 at day +14” value is on record as “significantly reduced; also recorded: persistent, significant depletion”; the “BM cellularity at day +14” value is given as “persistent BM hypoplasia”. Also, the “BM HSCs and progenitor cells at day +7 post-TBI” value in test [2] (700 cGy TBI, erlotinib 10 ug/G oral gavage daily, same in control mice, data not shown) was “depletion of BM HSCs and progenitor cells”. In addition, in test [2] (700 cGy TBI, erlotinib-treated donors vs control), the “short-term and longer-term HSCs (4 week through 12 week donor cell engraftment)” value is on record as “marked reduction”. The “hematopoietic reconstitution following total body irradiation” value in test [2] (Example 1, administration of erlotinib to mice) is “marked delay”.

B1: IL17: candidate cytokine from BM serum array screened on irradiated BM KSL cells (protein, UniProt Q62386 26-158, looked up)
Interleukin-17A: AAIIPQSSACPNTEAKDFLQNVKVNLKVFNSLGAKVSSRRPSDYLNRSTSPWTLHRNEDPDRYPSVIWEAQCRHQRCVNAEGKLDHHMNSVLIQQEILVLKREPESCPFTFRVEKMLVGVGCTCVASIVRQAA
As to B1, in the test on BM KSL cells, the “modulation of the activity of FL/- ECs or FL/+ ECs in promoting BM KSL cell recovery after irradiation” value (“modulation” for short) was “none modulated the activity” and the “recovery of BM KSL cells in vitro following irradiation” value (from here on “recovery of BM KSL cells”) is reported as “none of these proteins significantly altered the recovery”.

B2: KC: keratinocyte-derived chemokine, candidate protein screened on irradiated BM KSL cells (protein, UniProt P12850 25-96, looked up)
Growth-regulated alpha protein: APIANELRCQCLQTMAGIHLKNIQSLKVLPSGPHCTQTEVIATLKNGREACLDPEAPLVQKIVQKMLKGVPK
Turning to B2, in the test with BM KSL cells, the “modulation” value is given as “none modulated the activity” and the “recovery of BM KSL cells” value is on record as “none of these proteins significantly altered the recovery”.

B3: IL17f: candidate cytokine from BM serum array screened on irradiated BM KSL cells (protein, UniProt Q7TNI7 29-161, looked up)
Interleukin-17F: RKNPKAGVPALQKAGNCPPLEDNTVRVDIRIFNQNQGISVPREFQNRSSSPWDYNITRDPHRFPSEIAEAQCRHSGCINAQGQEDSTMNSVAIQQEILVLRREPQGCSNSFRLEKMLLKVGCTCVKPIVHQAA
As to B3, in the test with BM KSL cells, the “modulation” value was “none modulated the activity” and the “recovery of BM KSL cells” value was “none of these proteins significantly altered the recovery”.

B4: IL5: candidate cytokine from BM serum array screened on irradiated BM KSL cells (protein, UniProt P04401 21-133, looked up)
Interleukin-5: MEIPMSTVVKETLTQLSAHRALLTSNETMRLPVPTHKNHQLCIGEIFQGLDILKNQTVRGGTVEMLFQNLSLIKKYIDRQKEKCGEERRRTRQFLDYLQEFLGVMSTEWAMEG
As to B4, in the test on BM KSL cells, the “modulation” value is “none modulated the activity” and the “recovery of BM KSL cells” value is on record as “none of these proteins significantly altered the recovery”.

The values are drawn from patent publication US20130331326A1, “METHOD OF INDUCING HEMATOPOIETIC RECONSTRUCTION” (DUKE UNIVERSITY, priority 2011, published 2013).
